Drawing on patent publication US20140315901A1, “Arylpyrrolopyridine derived compounds as LRRK2 inhibitors” (H. Lundbeck A/S, priority 2013, published 2014), this text covers IC50 for 23 compounds.

The target in test [1] is T1, LRRK2 WT (Homo sapiens, UniProt Q5S007).
T1 construct: comprises residues 970 to 2527 of the full length human wild-type LRRK2 kinase; purchased Invitrogen (Life Technologies Corporation)
In words: LanthaScreen TR-FRET LRRK2 wild-type kinase activity assay. It counts as biochemical. The following applies: 1 nM LRRK2 WT kinase (residues 970 to 2527), 1.3 mM ATP, 0.4 μM fluorescein-LRRKtide, 2 hours at 30° C.; logarithmic average. The procedure:
(§1) LRRK2 kinase activity is measured using a LanthaScreen kinase activity assay available from Invitrogen (Life Technologies Corporation). The assay is a homogeneous time resolved-fluorescence resonance energy transfer (TR-FRET) assay that measures phosphorylation of a fluorescein-labelled peptide substrate (fluorescein-LRRKtide, fluorescein-[…]) (SEQ ID NO 1) as a result of LRRK2 kinase activity. The phosphorylated peptide is recognized by a terbium-labelled phospho-specific anti-LRRKtide antibody and, subsequently, the phosphorylated LRRKtide can be quantified by the extent of TR-FRET between the terbium donor and fluorescein acceptor.
(§2) The LRRK2 kinase is obtained from Invitrogen (Life Technologies Corporation) and comprises residues 970 to 2527 of the full length human wild-type LRRK2 kinase or a similar sequence with the G2019S mutation. As discussed above, this mutation increases the kinase activity relative to the wild-type. The kinase reactions are performed in a 20 μL volume in 384-well plates. The kinase reaction buffer consists of 50 mM Tris pH 8.5, 0.01% BRIJ-35, 10 mM MgCl2, 1 mM EGTA, and 2 mM DTT.
(§3) In the assay, 1 nM LRRK2 WT or 250 pM LRRK2 G2019S kinase is incubated with the test compound (typically at 0 to 30 μM) for 30 minutes before the kinase reaction is initiated by addition of 1.3 mM ATP and 0.4 μM fluorescein-LRRKtide. The reaction mixture (20 μl total volume) is incubated for 2 hours at 30° C. before the reaction is terminated by addition of 10 mM EDTA and 1 nM terbium-labelled anti-phospho-LRRKtide antibody (final volume […]). The mixture is further incubated for 30 minutes at RT. TR-FRET is measured by excitation of the terbium-donor with 340 nm light and subsequent (delay time 100 μs) measurement of terbium and fluorescein emission at 495 nm and 520 nm, respectively, over a time window of 1000 μs. The measurement is repeated 10 times for fluorescein and 10 times for terbium emission with a 2000 μs time window between repeats. TR-FRET measurements are performed on a Biomek Synergy plate. The TR-FRET signal is calculated as the emission-ratio at 520 nm over […].
(§4) Test compound potency (IC50) was estimated by nonlinear regression using the sigmoidal dose-response (variable slope) using Xlfit 4 (IDBS, Guildford, Surrey, UK, model 205). y=(A+((B−A)/(1+((C/x)̂D)))), where y is the normalized TR-TRET ratio measurement for a given concentration of test compound, x is the concentration of test compound, A is the estimated efficacy (% inhibition) at infinite compound dilution, and B is the maximal efficacy (% inhibition). C is the IC50 value and D is the Hill slope coefficient. IC50 estimates were obtained from independent experiment and the logarithmic average was calculated.
For orientation: TR-FRET usually uses a lanthanide donor and a delayed reading to cut background.

Test [2] has as its target T2, LRRK2 G2019S (Homo sapiens, UniProt Q5S007, G2019S).
T2 construct: purchased Invitrogen (Life Technologies Corporation)
Kind of test: LanthaScreen TR-FRET LRRK2 G2019S kinase activity assay. It counts as biochemical. The following applies: 250 pM LRRK2 G2019S kinase (residues 970 to 2527), 1.3 mM ATP, 0.4 μM fluorescein-LRRKtide, 2 hours at 30° C.; logarithmic average. The procedure: as §1, §2, §3, §4

T1 sequence (Q5S007 970-2527): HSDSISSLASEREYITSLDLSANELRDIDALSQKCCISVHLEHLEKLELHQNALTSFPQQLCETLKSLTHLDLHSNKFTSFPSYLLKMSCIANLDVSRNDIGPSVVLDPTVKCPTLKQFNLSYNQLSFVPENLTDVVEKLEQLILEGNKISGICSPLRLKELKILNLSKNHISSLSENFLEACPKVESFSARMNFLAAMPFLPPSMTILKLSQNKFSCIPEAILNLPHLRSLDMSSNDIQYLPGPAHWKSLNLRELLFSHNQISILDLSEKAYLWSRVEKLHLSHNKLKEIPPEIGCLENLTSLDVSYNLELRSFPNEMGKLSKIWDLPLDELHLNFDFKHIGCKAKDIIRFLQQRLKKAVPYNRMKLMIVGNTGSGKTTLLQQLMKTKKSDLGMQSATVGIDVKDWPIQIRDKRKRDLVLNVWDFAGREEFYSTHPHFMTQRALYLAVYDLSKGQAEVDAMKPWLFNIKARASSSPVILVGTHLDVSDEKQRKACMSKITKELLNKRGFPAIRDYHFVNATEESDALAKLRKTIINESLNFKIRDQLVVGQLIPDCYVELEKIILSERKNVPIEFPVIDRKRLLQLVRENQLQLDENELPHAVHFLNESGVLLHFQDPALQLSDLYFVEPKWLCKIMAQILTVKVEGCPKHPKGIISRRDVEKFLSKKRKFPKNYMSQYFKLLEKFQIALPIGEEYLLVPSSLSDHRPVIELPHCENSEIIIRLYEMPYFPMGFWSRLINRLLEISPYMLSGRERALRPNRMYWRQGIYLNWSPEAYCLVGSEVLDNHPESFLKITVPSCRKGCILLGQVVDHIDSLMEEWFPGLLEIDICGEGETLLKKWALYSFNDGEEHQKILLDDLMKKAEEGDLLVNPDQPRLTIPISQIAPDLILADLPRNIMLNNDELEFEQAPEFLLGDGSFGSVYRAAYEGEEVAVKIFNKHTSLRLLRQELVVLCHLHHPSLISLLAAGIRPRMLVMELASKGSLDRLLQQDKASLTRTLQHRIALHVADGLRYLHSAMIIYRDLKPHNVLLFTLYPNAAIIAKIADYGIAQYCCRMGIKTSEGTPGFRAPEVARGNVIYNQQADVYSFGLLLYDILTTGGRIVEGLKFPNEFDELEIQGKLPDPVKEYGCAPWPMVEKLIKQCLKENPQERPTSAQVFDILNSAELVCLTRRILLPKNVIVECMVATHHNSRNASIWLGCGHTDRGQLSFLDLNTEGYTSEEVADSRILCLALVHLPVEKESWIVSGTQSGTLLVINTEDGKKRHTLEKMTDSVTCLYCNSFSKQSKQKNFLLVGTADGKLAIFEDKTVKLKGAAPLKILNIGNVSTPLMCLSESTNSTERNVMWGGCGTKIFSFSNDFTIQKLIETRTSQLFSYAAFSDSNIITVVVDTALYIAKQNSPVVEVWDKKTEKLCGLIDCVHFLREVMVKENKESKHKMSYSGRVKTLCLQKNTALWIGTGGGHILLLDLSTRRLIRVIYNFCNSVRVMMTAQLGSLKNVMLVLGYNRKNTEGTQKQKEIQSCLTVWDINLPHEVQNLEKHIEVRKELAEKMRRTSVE
T2 sequence (Q5S007 970-2527 G2019S): as the sequence (Q5S007 970-2527) above, with G1050S counted along it

In general, IC50 refers to the point on the concentration scale where inhibition reaches its midpoint. As for `COc1cccc(-c2ccnc3[nH]cc(C#N)c23)c1` [Example 1, 4-(3-Methoxyphenyl)-1H-pyrrolo[2,3-b]pyridine-3-carbonitrile], the IC50 in test [1] was 0.247 µM; in test [2], 0.201 µM.
Taken in the same sequence, the figures for `Cc1cccc(-c2ccnc3[nH]cc(C#N)c23)c1` [Example 2, 4-(3-Methylphenyl)-1H-pyrrolo[2,3-b]pyridine-3-carbonitrile] were 0.17 µM and 0.195 µM.
Taken in the same sequence, the figures for `CCc1cccc(-c2ccnc3[nH]cc(C#N)c23)c1` [Example 3, 4-(3-Ethylphenyl)-1H-pyrrolo[2,3-b]pyridine-3-carbonitrile] were 0.266 µM and 0.252 µM.
Taken in the same sequence, the figures for `N#Cc1c[nH]c2nccc(-c3ccsc3)c12` [Example 4, 4-(Thiophen-3-yl)-1H-pyrrolo[2,3-b]pyridine-3-carbonitrile] were 1.28 µM and 0.851 µM.
Consider `N#Cc1c[nH]c2nccc(-c3ccc(CN4CCOCC4)cc3)c12` [Example 5, 4-[4-(Morpholin-4-ylmethyl)phenyl]-1H-pyrrolo[2,3-b]pyridine-3-carbonitrile], for which the figures for the IC50 in test [1] and in test [2] were 5.44 µM and 1.31 µM, respectively.
Taken in the same sequence, the figures for `N#Cc1c[nH]c2nccc(-c3ccn(CN4CCOCC4)c3)c12` [Example 6, 4-[1-(Morpholin-4-ylmethyl)pyrrol-3-yl]-1H-pyrrolo[2,3-b]pyridine-3-carbonitrile] were 3.87 µM and 0.65 µM.
Taken in the same sequence, the figures for `Cc1cc(-c2ccnc3[nH]cc(C#N)c23)ccc1CN1CCOCC1` [Example 7, 4-[3-Methyl-4-(morpholin-4-ylmethyl)phenyl]-1H-pyrrolo[2,3-b]pyridine-3-carbonitrile] were 0.62 µM and 0.078 µM.
Taken in the same sequence, the figures for `Cc1cc(-c2ccnc3[nH]cc(C#N)c23)ccc1CN(C)C` [Example 8, 4-{4-[(Dimethylamino)methyl]-3-methylphenyl}-1H-pyrrolo[2,3-b]pyridine-3-carbonitrile] were 0.549 µM and 0.288 µM.
As to `CCc1cc(-c2ccnc3[nH]cc(C#N)c23)ccc1CN1CCOCC1` [Example 9, 4-[3-Ethyl-4-(morpholin-4-ylmethyl)phenyl]-1H-pyrrolo[2,3-b]pyridine-3-carbonitrile], the values for the IC50 in test [1] and in test [2] were 0.149 µM and 0.026 µM, respectively.
Taken in the same sequence, the figures for `COc1cc(-c2ccnc3[nH]cc(C#N)c23)ccc1CN1CCOCC1` [Example 10, 4-[3-Methoxy-4-(morpholin-4-ylmethyl)phenyl]-1H-pyrrolo[2,3-b]pyridine-3-carbonitrile] were 0.919 µM and 0.154 µM.
Taken in the same sequence, the figures for `N#Cc1c[nH]c2nc(N)cc(-c3ccccc3)c12` [Example 11, 6-Amino-4-phenyl-1H-pyrrolo[2,3-b]pyridine-3-carbonitrile] were 0.216 µM and 0.24 µM.
Taken in the same sequence, the figures for `Cc1cccc(-c2cc(N)nc3[nH]cc(C#N)c23)c1` [Example 12, 6-Amino-4-(3-methylphenyl)-1H-pyrrolo[2,3-b]pyridine-3-carbonitrile] were 0.015 µM and 0.017 µM.
Turning to `Cn1ccc(Nc2cc(-c3ccccc3)c3c(C#N)c[nH]c3n2)n1` [Example 13, 6-[(1-Methylpyrazol-3-yl)amino]-4-phenyl-1H-pyrrolo[2,3-b]pyridine-3-carbonitrile], the half-maximal inhibitory concentration (IC50) in test [1] stood at 0.048 µM; in test [2], 0.058 µM.
Taken in the same sequence, the figures for `Cc1cccc(-c2cc(Nc3ccn(C)n3)nc3[nH]cc(C#N)c23)c1` [Example 14, 4-(3-Methylphenyl)-6-[(1-methylpyrazol-3-yl)amino]-1H-pyrrolo[2,3-b]pyridine-3-carbonitrile] were 0.001 µM and 0.002 µM.
Taken in the same sequence, the figures for `Cc1cc(-c2cc(Nc3ccn(C)n3)nc3[nH]cc(C#N)c23)ccc1CN1CCOCC1` [Example 15, 4-[3-Methyl-4-(morpholin-4-ylmethyl)phenyl]-6-[(1-methylpyrazol-3-yl)amino]-1H-pyrrolo[2,3-b]pyridine-3-carbonitrile] were 0.004 µM and 0.001 µM.
Taken in the same sequence, the figures for `Cn1cc(Nc2cc(-c3ccccc3)c3c(C#N)c[nH]c3n2)cn1` [Example 16, 6-[(1-Methylpyrazol-4-yl)amino]-4-phenyl-1H-pyrrolo[2,3-b]pyridine-3-carbonitrile] were 0.097 µM and 0.164 µM.
Turning to `N#Cc1c[nH]c2nc(Nc3ccccn3)cc(-c3ccccc3)c12` [Example 17, 4-Phenyl-6-(pyridin-2-ylamino)-1H-pyrrolo[2,3-b]pyridine-3-carbonitrile], the IC50 in test [1] worked out at 0.34 µM; in test [2], 0.527 µM.
Taken in the same sequence, the figures for `Cc1cncc(-c2cc(Nc3nn(C)cc3C(F)(F)F)nc3[nH]cc(C#N)c23)c1` [Example 18, 6-{[1-Methyl-4-(trifluoromethyl)-1H-pyrazol-3-yl]amino}-4-(5-methylpyridin-3-yl)-1H-pyrrolo[2,3-b]pyridine-3-carbonitrile] were 0.358 µM and 0.509 µM.
Taken in the same sequence, the figures for `Cc1ccnc(-c2cc(Nc3nn(C)cc3Cl)nc3[nH]cc(C#N)c23)c1` [Example 19, 6-[(4-Chloro-1-methyl-1H-pyrazol-3-yl)amino]-4-(4-methylpyridin-2-yl)-1H-pyrrolo[2,3-b]pyridine-3-carbonitrile] were 0.145 µM and 0.215 µM.
For the compound `Cc1cccc(-c2cc(Nc3nn(C)cc3C)nc3[nH]cc(C#N)c23)n1` [Example 20, 6-[(1,4-Dimethyl-1H-pyrazol-3-yl)amino]-4-(6-methylpyridin-2-yl)-1H-pyrrolo[2,3-b]pyridine-3-carbonitrile], the figures for the IC50 in test [1] and in test [2] were 0.036 µM and 0.05 µM, respectively.
Consider `Cc1cccc(-c2cc(Nc3nn(C)cc3C(F)(F)F)nc3[nH]cc(C#N)c23)n1` [Example 21, 6-{[1-Methyl-4-(trifluoromethyl)-1H-pyrazol-3-yl]amino}-4-(6-methylpyridin-2-yl)-1H-pyrrolo[2,3-b]pyridine-3-carbonitrile], for which the IC50 in test [1] came to 0.393 µM; in test [2] it was 0.575 µM.
Taken in the same sequence, the figures for `Cc1cncc(-c2cc(Nc3ccn(C)n3)nc3[nH]cc(C#N)c23)c1` [Example 22, 6-[(1-Methyl-1H-pyrazol-3-yl)amino]-4-(5-methylpyridin-3-yl)-1H-pyrrolo[2,3-b]pyridine-3-carbonitrile] were 0.027 µM and 0.037 µM.
Taken in the same sequence, the figures for `Cc1cc(-c2cc(Nc3nn(C)cc3C)nc3[nH]cc(C#N)c23)ccn1` [Example 23, 6-[(1,4-Dimethyl-1H-pyrazol-3-yl)amino]-4-(2-methylpyridin-4-yl)-1H-pyrrolo[2,3-b]pyridine-3-carbonitrile] were 0.215 µM and 0.108 µM.
